Reference: publication PMC3639963, “A New Class of Small Molecule Inhibitor of BMP Signaling” (PLoS ONE, 2013)
“Also recorded” adds a separate entry of the source.

Key:
[1] = target: T1, MRCKβ (Homo sapiens, UniProt Q9Y5S2); test: DSF thermal shift; format: binding; settings: 10 µM inhibitor; read-out: Tm shift
T1 construct: purchased Nanosyn (enzymatic panel); SGC in-house recombinant human kinases (DSF panel); Invitrogen (ALK1-6)
Procedure: (§1) Thermal melting experiments were performed using a Real Time PCR machine Mx3005p (Stratagene) with a protein concentration of 1–2 µM and 10 µM inhibitor as described previously, [25]. […] Recombinant human kinases for DSF screening were prepared by SGC using published methods, [36].

[2] = target: T2, GRK1 (Homo sapiens, UniProt Q15835); test: DSF thermal shift; format: binding; settings: 10 µM inhibitor; read-out: Tm shift
T2 construct: purchased Nanosyn (enzymatic panel); SGC in-house recombinant human kinases (DSF panel); Invitrogen (ALK1-6)
T2 sequence (Q15835 1-563): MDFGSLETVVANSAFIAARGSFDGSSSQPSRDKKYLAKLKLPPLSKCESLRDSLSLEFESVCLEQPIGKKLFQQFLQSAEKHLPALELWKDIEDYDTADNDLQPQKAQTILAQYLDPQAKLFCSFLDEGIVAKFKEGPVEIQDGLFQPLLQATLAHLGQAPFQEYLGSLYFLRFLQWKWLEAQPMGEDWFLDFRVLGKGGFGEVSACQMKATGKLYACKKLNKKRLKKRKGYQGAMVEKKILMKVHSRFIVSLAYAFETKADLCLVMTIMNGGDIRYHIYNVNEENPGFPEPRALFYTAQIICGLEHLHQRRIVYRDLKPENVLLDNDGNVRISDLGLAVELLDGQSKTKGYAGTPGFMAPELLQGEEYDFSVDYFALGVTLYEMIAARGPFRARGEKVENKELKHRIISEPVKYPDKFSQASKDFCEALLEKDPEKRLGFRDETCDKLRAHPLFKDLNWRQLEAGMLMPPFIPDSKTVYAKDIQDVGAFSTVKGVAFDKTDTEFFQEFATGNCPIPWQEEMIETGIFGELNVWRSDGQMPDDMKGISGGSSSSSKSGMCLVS
Procedure: as §1

[3] = target: T3, ALK4 (Homo sapiens, UniProt P36896); test: DSF thermal shift; format: binding; settings: 10 µM inhibitor; read-out: Tm shift
T3 construct: purchased Invitrogen
T3 sequence (P36896 24-505): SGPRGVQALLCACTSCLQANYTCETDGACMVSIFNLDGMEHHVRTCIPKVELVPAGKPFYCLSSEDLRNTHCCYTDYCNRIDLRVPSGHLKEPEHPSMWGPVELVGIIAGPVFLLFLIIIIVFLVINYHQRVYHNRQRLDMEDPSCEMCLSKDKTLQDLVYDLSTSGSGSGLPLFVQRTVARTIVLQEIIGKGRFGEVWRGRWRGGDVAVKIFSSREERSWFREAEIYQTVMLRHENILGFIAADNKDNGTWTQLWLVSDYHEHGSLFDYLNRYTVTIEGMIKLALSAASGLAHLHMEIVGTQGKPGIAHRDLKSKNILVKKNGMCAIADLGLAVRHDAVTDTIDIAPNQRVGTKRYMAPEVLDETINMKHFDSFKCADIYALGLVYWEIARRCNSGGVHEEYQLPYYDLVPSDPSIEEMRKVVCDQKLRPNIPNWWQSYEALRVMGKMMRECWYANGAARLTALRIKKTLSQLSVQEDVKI
Procedure: as §1

[4] = target: T4, CK1γ1 (Homo sapiens, UniProt Q9HCP0); test: DSF thermal shift; format: binding; settings: 10 µM inhibitor; read-out: Tm shift
T4 construct: purchased Nanosyn (enzymatic panel); SGC in-house recombinant human kinases (DSF panel); Invitrogen (ALK1-6)
Procedure: as §1

[5] = target: T5, MST3 (Homo sapiens, UniProt Q9Y6E0); test: DSF thermal shift; format: binding; settings: 10 µM inhibitor; read-out: Tm shift
T5 construct: purchased Nanosyn (enzymatic panel); SGC in-house recombinant human kinases (DSF panel); Invitrogen (ALK1-6)
Procedure: as §1

[6] = target: T6, JNK2 (Homo sapiens, UniProt P45984); test: DSF thermal shift; format: binding; settings: 10 µM inhibitor; read-out: Tm shift
T6 construct: purchased Nanosyn (enzymatic panel); SGC in-house recombinant human kinases (DSF panel); Invitrogen (ALK1-6)
Procedure: as §1

[7] = target: T7, PIM1 (Homo sapiens, UniProt P11309); test: DSF thermal shift; format: binding; settings: 10 µM inhibitor; read-out: Tm shift
T7 construct: purchased Nanosyn (enzymatic panel); SGC in-house recombinant human kinases (DSF panel); Invitrogen (ALK1-6)
Procedure: as §1

[8] = target: T8, CDK2 (Homo sapiens, UniProt P24941); test: DSF thermal shift; format: binding; settings: 10 µM inhibitor; read-out: Tm shift
T8 construct: purchased Nanosyn (enzymatic panel); SGC in-house recombinant human kinases (DSF panel); Invitrogen (ALK1-6)
Procedure: as §1

[9] = target: T9, AMPKα1 (Homo sapiens, UniProt Q13131); test: DSF thermal shift; format: binding; settings: 10 µM inhibitor; read-out: Tm shift
T9 construct: purchased Nanosyn (enzymatic panel); SGC in-house recombinant human kinases (DSF panel); Invitrogen (ALK1-6)
Procedure: as §1

[10] = target: T10, MPSK1 (Homo sapiens, UniProt O75716); test: DSF thermal shift; format: binding; settings: 10 µM inhibitor; read-out: Tm shift
T10 construct: purchased Nanosyn (enzymatic panel); SGC in-house recombinant human kinases (DSF panel); Invitrogen (ALK1-6)
Procedure: as §1

[11] = target: T11, MST4 (Homo sapiens, UniProt Q9P289); test: DSF thermal shift; format: binding; settings: 10 µM inhibitor; read-out: Tm shift
T11 construct: purchased Nanosyn (enzymatic panel); SGC in-house recombinant human kinases (DSF panel); Invitrogen (ALK1-6)
Procedure: as §1

[12] = target: T12, CLK3 (Homo sapiens, UniProt P49761); test: DSF thermal shift; format: binding; settings: 10 µM inhibitor; read-out: Tm shift
T12 construct: purchased Nanosyn (enzymatic panel); SGC in-house recombinant human kinases (DSF panel); Invitrogen (ALK1-6)
Procedure: as §1

[13] = tested on: Tg(fli1a:eGFP) zebrafish embryos; test: Intersomitic vessel (ISV) formation in zebrafish embryos; format: in vivo; settings: treated from 12 hpf, scored at 48 hpf
Procedure: The zebrafish colony was maintained as described and embryos were raised at 28.5°C. The Tg(BRE:mRFP) transgenic line (also called BRE-mRFP) has been described previously and expresses mRFP in response to BMP signaling. […] Inhibitor stocks were diluted in DMSO and then further diluted in fish water to give the required inhibitor concentrations. To minimize the amount of inhibitors used, experiments were performed in 24-well plates with approximately 20 embryos per well in a volume of 1 mL. The chemical treatment was applied by immersing 8- to 16-cell stage Tg(BRE:mRFP) embryos (dorsalization experiment) or 12 hours old […]) embryos (ISV experiment) in the fish water supplemented with DMSO or the chemical inhibitors. For the ISV experiment, embryos were manually dechorionated after bud stage before treatment. Embryos were scored and photographed at 26 or 48 hours.

T7 sequence (P11309 whole entry): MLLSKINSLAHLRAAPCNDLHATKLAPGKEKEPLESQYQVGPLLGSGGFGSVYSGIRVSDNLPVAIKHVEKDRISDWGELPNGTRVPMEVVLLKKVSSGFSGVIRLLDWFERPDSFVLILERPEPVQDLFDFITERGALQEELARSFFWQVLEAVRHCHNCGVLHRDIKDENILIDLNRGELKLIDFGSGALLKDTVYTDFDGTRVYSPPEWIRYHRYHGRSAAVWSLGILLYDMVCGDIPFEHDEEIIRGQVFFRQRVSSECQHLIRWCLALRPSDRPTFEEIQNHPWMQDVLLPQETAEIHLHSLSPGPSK
T6 sequence (P45984 whole entry): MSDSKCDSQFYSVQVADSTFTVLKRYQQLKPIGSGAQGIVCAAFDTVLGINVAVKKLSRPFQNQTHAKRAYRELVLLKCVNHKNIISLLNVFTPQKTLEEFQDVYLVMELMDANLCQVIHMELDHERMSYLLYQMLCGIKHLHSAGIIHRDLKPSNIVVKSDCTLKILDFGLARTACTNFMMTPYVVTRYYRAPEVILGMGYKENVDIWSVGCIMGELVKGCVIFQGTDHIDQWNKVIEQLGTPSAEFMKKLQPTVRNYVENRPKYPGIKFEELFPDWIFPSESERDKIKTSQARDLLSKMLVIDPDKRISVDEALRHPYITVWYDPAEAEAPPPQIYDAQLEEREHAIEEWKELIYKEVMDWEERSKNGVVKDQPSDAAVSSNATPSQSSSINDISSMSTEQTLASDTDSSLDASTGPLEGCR
T11 sequence (Q9P289 whole entry): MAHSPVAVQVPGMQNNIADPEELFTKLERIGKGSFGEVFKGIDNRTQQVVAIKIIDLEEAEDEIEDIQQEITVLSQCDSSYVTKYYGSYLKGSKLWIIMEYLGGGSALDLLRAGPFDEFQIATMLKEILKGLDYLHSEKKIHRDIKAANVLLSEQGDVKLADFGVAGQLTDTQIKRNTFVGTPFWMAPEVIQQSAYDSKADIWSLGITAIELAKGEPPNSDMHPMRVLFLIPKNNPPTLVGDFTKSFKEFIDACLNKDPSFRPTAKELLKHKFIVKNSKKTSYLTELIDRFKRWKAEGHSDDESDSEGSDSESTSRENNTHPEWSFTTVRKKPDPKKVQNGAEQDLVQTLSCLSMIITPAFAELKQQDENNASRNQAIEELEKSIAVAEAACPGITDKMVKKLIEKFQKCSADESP
T4 sequence (Q9HCP0 whole entry): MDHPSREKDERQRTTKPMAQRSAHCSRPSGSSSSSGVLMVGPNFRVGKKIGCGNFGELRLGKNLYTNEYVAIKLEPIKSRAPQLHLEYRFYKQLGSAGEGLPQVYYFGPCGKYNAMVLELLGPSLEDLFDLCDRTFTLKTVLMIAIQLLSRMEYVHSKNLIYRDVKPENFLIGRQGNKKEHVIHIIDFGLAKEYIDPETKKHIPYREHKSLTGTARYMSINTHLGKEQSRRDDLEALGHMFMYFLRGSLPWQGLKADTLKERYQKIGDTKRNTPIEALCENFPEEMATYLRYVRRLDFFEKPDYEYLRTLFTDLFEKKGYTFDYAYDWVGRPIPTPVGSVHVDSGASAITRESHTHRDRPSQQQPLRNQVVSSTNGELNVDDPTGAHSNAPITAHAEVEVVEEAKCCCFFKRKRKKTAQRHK
T1 sequence (Q9Y5S2 whole entry): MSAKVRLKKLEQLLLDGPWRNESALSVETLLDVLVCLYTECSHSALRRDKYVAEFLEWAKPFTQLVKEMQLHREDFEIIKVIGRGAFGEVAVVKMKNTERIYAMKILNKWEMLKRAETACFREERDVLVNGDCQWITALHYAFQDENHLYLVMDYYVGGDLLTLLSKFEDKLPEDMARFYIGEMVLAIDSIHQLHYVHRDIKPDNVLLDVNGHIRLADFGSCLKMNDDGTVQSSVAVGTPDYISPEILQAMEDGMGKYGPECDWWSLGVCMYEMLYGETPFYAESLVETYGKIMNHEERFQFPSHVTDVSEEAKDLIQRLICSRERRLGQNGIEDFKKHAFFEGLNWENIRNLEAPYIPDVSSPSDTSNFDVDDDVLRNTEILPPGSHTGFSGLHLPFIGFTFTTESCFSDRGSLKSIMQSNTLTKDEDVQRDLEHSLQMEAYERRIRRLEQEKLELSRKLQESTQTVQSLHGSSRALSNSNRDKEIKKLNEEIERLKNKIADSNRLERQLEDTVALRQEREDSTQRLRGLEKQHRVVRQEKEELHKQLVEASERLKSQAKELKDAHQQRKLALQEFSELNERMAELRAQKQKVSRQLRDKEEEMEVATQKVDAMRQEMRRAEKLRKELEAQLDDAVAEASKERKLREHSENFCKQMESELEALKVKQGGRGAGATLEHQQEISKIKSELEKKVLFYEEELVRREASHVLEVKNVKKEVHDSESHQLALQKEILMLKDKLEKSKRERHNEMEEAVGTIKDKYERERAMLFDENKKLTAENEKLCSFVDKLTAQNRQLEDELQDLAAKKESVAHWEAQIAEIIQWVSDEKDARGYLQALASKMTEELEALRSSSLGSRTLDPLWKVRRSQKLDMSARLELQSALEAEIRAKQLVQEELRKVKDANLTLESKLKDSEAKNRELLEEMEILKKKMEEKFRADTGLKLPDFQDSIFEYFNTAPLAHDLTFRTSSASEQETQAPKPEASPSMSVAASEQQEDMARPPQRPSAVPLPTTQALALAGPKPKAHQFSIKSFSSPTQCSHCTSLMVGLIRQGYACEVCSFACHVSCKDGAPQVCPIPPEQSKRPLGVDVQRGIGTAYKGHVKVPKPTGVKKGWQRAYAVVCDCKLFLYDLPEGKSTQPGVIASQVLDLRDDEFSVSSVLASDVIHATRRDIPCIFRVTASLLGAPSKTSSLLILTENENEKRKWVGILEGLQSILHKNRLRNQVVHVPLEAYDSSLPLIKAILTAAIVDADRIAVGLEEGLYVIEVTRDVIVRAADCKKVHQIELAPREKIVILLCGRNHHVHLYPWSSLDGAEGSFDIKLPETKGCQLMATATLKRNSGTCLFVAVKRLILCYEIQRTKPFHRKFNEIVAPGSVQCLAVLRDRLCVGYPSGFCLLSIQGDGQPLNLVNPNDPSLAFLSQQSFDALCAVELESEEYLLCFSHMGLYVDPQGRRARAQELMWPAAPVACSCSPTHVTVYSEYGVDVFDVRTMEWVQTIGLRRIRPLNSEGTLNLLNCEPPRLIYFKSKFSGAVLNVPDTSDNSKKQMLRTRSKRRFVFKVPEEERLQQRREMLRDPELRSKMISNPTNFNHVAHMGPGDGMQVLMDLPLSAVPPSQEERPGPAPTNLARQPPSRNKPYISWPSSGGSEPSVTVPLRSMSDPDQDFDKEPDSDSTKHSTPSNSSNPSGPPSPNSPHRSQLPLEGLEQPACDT
T10 sequence (O75716 whole entry): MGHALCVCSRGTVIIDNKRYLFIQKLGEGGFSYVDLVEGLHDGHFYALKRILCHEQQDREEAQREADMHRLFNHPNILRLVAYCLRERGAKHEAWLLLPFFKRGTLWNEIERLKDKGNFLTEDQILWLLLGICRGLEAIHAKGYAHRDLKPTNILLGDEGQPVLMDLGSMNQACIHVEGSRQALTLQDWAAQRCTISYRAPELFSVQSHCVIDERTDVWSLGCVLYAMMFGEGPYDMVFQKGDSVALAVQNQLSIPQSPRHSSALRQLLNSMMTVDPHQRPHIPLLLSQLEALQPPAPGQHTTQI
T9 sequence (Q13131 whole entry): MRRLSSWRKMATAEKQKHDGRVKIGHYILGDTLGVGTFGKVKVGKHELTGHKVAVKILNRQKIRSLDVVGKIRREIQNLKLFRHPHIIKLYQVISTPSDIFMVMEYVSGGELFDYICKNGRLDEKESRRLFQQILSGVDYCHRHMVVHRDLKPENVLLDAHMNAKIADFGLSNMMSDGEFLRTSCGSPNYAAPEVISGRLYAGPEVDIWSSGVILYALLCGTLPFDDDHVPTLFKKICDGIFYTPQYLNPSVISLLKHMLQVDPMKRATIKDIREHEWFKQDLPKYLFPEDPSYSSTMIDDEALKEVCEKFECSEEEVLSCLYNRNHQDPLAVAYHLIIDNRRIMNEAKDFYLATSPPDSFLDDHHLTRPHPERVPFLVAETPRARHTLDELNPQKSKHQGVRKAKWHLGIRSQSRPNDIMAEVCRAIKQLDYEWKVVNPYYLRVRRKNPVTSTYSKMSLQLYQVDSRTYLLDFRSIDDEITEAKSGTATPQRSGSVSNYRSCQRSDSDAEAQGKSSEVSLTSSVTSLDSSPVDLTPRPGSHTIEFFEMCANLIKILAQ
T9 sequence (Q9Y478 whole entry partner): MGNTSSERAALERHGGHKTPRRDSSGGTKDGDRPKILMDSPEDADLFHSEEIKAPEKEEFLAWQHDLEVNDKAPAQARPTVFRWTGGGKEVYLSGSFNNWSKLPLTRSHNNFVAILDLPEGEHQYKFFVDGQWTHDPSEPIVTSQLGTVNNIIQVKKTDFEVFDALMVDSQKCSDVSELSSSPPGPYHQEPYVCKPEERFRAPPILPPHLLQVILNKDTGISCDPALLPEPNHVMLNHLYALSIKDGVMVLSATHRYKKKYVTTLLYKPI
T9 sequence (P54619 whole entry partner): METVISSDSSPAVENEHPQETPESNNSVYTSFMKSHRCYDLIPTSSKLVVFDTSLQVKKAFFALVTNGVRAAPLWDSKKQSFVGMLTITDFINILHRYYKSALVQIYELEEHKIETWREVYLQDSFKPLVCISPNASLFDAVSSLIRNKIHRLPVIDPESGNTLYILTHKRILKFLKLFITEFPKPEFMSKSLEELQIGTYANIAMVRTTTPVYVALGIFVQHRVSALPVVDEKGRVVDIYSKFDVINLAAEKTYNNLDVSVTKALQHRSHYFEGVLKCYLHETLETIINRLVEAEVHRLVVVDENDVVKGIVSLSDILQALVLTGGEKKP

SMILES	ΔTm at 10 µM [1]	ΔTm at 10 µM [2]	ΔTm at 10 µM [3]	ΔTm at 10 µM [4]	ΔTm at 10 µM [5]	ΔTm at 10 µM [6]	ΔTm at 10 µM [7]	ΔTm at 10 µM [8]	ΔTm at 10 µM [9]	ΔTm at 10 µM [10]	ΔTm at 10 µM [11]	ΔTm at 10 µM [12]	ISV formation phenotype ([13]; 10 µM)	ISV formation phenotype ([13]; 10–20 µM)
c1cc(-c2cnn3cc(-c4ccc(OCCN5CCCCC5)cc4)cnc23)ccn1 [Dorsomorphin]	0 °C	0.4 °C	6.1 °C	0.4 °C	4.6 °C	0.4 °C	0.6 °C	2.5 °C	3.9 °C	5.3 °C	0.7 °C	3.7 °C	defects in intersomitic vessel (ISV) formation	
COc1cc(-c2cc(-c3cccc(O)c3)cnc2N)cc(OC)c1OC [K02288, 3-[6-amino-5-(3,4,5-trimethoxy-phenyl)-pyridin-3-yl]-phenol]	0.4 °C	0 °C	8.2 °C	0.7 °C	0.3 °C	-0.1 °C	0.1 °C	0.1 °C	0.2 °C	0.3 °C	0.2 °C	0 °C	no phenotype	no ISV defects
c1ccc2c(-c3cnn4cc(-c5ccc(N6CCNCC6)cc5)cnc34)ccnc2c1 [LDN-193189]	0.6 °C	-0.7 °C	11 °C	0.3 °C	7.9 °C	-0.6 °C	0.5 °C	0.7 °C	4.3 °C	5.3 °C	0.8 °C	0.7 °C	defects in intersomitic vessel (ISV) formation; also recorded: weak ISV defects	
